Laboratory results published in patent publication US20220313698A1, “MODULATORS OF CYSTIC FIBROSIS TRANSMEMBRANE CONDUCTANCE REGULATOR” (Vertex Pharmaceuticals Incorporated, priority 2019, published 2022).

Tests used:
[1] = biological target: T1, CFTR-mediated chloride transport (Homo sapiens, UniProt P13569); assay: Corrector Assay B - membrane potential dye assay (enteroid cells); conditions: for Corrector Assay B % activity: % of chloride transport of triple combination control (3 μM Compound A + 3 μM tezacaftor + 300 nM ivacaftor); for EC50: read-out: Corrector Assay B EC50, human intestinal enteroid cells, 18-24 h incubation, acute 10 μM forskolin + 300 nM ivacaftor;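 for all read-outs here: methyl oxonol membrane potential fluorescence followed over 15 min after switching to chloride-free buffer with forskolin, 100 µM IBMX and ivacaftor, in presence of CaCC blockers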
[2] = biological target: T1, CFTR-mediated chloride transport; assay: Corrector Assay A - membrane potential dye assay (enteroid cells); conditions: for Corrector Assay A % activity: % of chloride transport of triple combination control (1 μM (14S)-dispiro macrocycle + 3 μM tezacaftor + 300 nM ivacaftor); for EC50: read-out: Corrector Assay A EC50, human intestinal enteroid cells, 18-24 h incubation, acute 10 μM forskolin + 300 nM ivacaftor
Protocol: Base medium (ADF+++) consisted of Advanced DMEM/Ham's F12, 2 mM Glutamax, 10 mM HEPES, 1 μg/ml penicillin/streptomycin.
Intestinal enteroid maintenance medium (IEMM) consisted of ADF+++, 1×B27 supplement, 1×N2 supplement, 1.25 mM N-acetyl cysteine, 10 mM Nicotinamide, 50 ng/mL hEGF, 10 nM Gastrin, 1 μg/mL hR-spondin-1, 100 ng/mL hNoggin, TGF-b type 1 inhibitor A-83-01, 100 μg/mL Primocin, 10 μM P38 MAPK inhibitor SB202190.
Bath 1 Buffer consisted of 1 mM MgCl2, 160 mM NaCl, 4.5 mM KCl, 10 mM HEPES, 10 mM Glucose, 2 mM CaCl2).
Chloride Free Buffer consisted of 1 mM Magnesium Gluconate, 2 mM Calcium Gluconate, 4.5 mM Potassium Gluconate, 160 mM Sodium Gluconate, 10 mM HEPES, 10 mM Glucose.
Bath 1 Dye Solution consisted of Bath 1 Buffer, 0.04% Pluronic F127, 20 μM Methyl Oxonol, 30 μM CaCCinh-A01, 30 μM Chicago Sky Blue.
Chloride Free Dye Solution consisted of Chloride Free Buffer, 0.04% Pluronic F127, 20 μM Methyl Oxonol, 30 μM CaCCinh-A01, 30 μM Chicago Sky Blue.
Chloride Free Dye Stimulation Solution consisted of Chloride Free Dye Solution, 10 μM forskolin, 100 μM IBMX, and 300 nM Ivacaftor.
Cells were recovered in cell recovery solution, collected by centrifugation at 650 rpm for 5 min at 4° C., resuspended in TryPLE and incubated for 5 min at 37° C. Cells were then collected by centrifugation at 650 rpm for 5 min at 4° C. and resuspended in IEMM containing 10 μM ROCK inhibitor (RI). The cell suspension was passed through a 40 μm cell strainer and resuspended at 1×10^6 cells/mL in IEMM containing 10 μM RI. Cells were seeded at 5000 cells/well into multi-well plates and incubated for overnight at 37° C., 95% humidity and 5% CO2 prior to assay.
Briefly, cells were washed 5 times in Bath 1 Buffer. Bath 1 Dye Solution was added and the cells were incubated for 25 min at room temperature. Following dye incubation, cells were washed 3 times in Chloride Free Dye Solution. Chloride transport was initiated by addition of Chloride Free Dye Stimulation Solution and the fluorescence signal was read for 15 min. The CFTR-mediated chloride transport for each condition was determined from the AUC of the fluorescence response to acute forskolin and 300 nM N-[2,4-bis(1,1-dimethylethyl)-5-hydroxyphenyl]-1,4-dihydro-4-oxoquinoline-3-carboxamide stimulation. Chloride transport was then expressed as a percentage of the chloride transport following treatment with 1 μM (14S)-8-[3-(2-{Dispiro[2.0.2.1]heptan-7-yl}ethoxy)-1H-pyrazol-1-yl]-12,12-dimethyl-2λ^6-thia-3,9,11,18,23-pentaazatetracyclo[17.3.1.111,14.05,10]tetracosa-1(22),5,7,9,19(23),20-hexaene-2,2,4-trione, 3 μM (R)-1-(2,2-difluorobenzo[d][1,3]dioxol-5-yl)-N-(1-(2,3-dihydroxypropyl)-6-fluoro-2-(1-hydroxy-2-methylpropan-2-yl)-1H-indol-5-yl)cyclopropanecarboxamide and 300 nM acute N-[2,4-bis(1,1-dimethylethyl)-5-hydroxyphenyl]-1,4-dihydro-4-oxoquinoline-3-carboxamide triple combination control (% Activity).

Compound | Corrector Assay B % activity [1] | EC50 [1] | Corrector Assay A % activity [2] | EC50 [2]
CC1(C)C[C@@H]2CCC(c3ccccc3)Nc3cccc(n3)S(=O)(=O)NC(=O)c3cccnc3N1C2 (single isomer, unassigned) [Compound 288] | +++ (+++ is >60%) | 1000 to 3000 nM | – | –
CC1(C)C[C@@H]2CCC(c3ccccc3)Nc3cccc(n3)S(=O)(=O)NC(=O)c3cccnc3N1C2 (single isomer, unassigned) [Compound 289] | +++ (+++ is >60%) | < 1000 nM | – | –
CC(C)(C)c1ccc2c(n1)N1C[C@@H](CCC(c3ccc(C(=O)O)cc3)Nc3cccc(n3)S(=O)(=O)NC2=O)CC1(C)C (single isomer, unassigned) [Compound 290] | ++ (++ is 30-60%) | 1000 to 3000 nM | – | –
CC(C)(C)c1ccc2c(n1)N1C[C@@H](CCC(c3ccc(C(=O)O)cc3)Nc3cccc(n3)S(=O)(=O)NC2=O)CC1(C)C (single isomer, unassigned) [Compound 291] | ++ (++ is 30-60%) | 1000 to 3000 nM | – | –
CC(C)(C)c1ccc2c(n1)N1C[C@@H](CCC(c3cncnc3)Nc3cccc(n3)S(=O)(=O)NC2=O)CC1(C)C (single isomer, unassigned) [Compound 298] | +++ (+++ is >60%) | < 1000 nM | – | –
CC(C)C1CC[C@@H]2CN(c3nc(-n4ccc(OCCC5(C(F)(F)F)CC5)n4)ccc3C(=O)NS(=O)(=O)c3cccc(n3)N1)C(C)(C)C2 (single isomer, unassigned) [Compound 358] | +++ (+++ is >60%) | < 1000 nM | – | –
CCCC1(C)CC2CCCNc3cccc(n3)S(=O)(=O)NC(=O)c3ccc(-n4ccc(OCCC5(C(F)(F)F)CC5)n4)nc3N1C2 (single isomer, unassigned) [Compound 365, 12-methyl-12-propyl-8-(3-{2-[1-(trifluoromethyl)cyclopropyl]ethoxy}-1H-pyrazol-1-yl)-2λ^6-thia-3,9,11,18,23-pentaazatetracyclo[17.3.1.111,14.05,10]tetracosa-1(22),5,7,9,19(23),20-hexaene-2,2,4-trione] | + (+ is <30%) | – | – | –
CCCC1(C)CC2CCCNc3cccc(n3)S(=O)(=O)NC(=O)c3ccc(-n4ccc(OCCC5(C(F)(F)F)CC5)n4)nc3N1C2 (single isomer, unassigned) [Compound 366, 12-methyl-12-propyl-8-(3-{2-[1-(trifluoromethyl)cyclopropyl]ethoxy}-1H-pyrazol-1-yl)-2λ^6-thia-3,9,11,18,23-pentaazatetracyclo[17.3.1.111,14.05,10]tetracosa-1(22),5,7,9,19(23),20-hexaene-2,2,4-trione] | + (+ is <30%) | – | – | –
CCCC1(C)CC2CCCNc3cccc(n3)S(=O)(=O)NC(=O)c3ccc(-n4ccc(OCCC5(C(F)(F)F)CC5)n4)nc3N1C2 (single isomer, unassigned) [Compound 368, 12-methyl-12-propyl-8-(3-{2-[1-(trifluoromethyl)cyclopropyl]ethoxy}-1H-pyrazol-1-yl)-2λ^6-thia-3,9,11,18,23-pentaazatetracyclo[17.3.1.111,14.05,10]tetracosa-1(22),5,7,9,19(23),20-hexaene-2,2,4-trione] | +++ (+++ is >60%) | < 1000 nM | – | –
CC1(C)CC=C(c2ccc3c(n2)N2C[C@@H](CC[C@H](c4ccccn4)Nc4cccc(n4)S(=O)(=O)NC3=O)CC2(C)C)CC1 [Compound 327] | – | – | +++ (+++ is >60%) | < 1000 nM
CC1(C)C[C@@H]2CC[C@H](c3ccccn3)Nc3cccc(n3)S(=O)(=O)NC(=O)c3ccc(C4CCCCC4)nc3N1C2 [Compound 328] | – | – | +++ (+++ is >60%) | < 1000 nM
CC1(C)C[C@@H]2CC[C@H](c3ccccn3)Nc3cccc(n3)S(=O)(=O)NC(=O)c3ccc(C4=CCCCC4)nc3N1C2 [Compound 329] | – | – | +++ (+++ is >60%) | < 1000 nM
CC1(C)C[C@@H]2CC[C@H](c3ccccn3)Nc3cccc(n3)S(=O)(=O)NC(=O)c3ccc(C4CCC4)nc3N1C2 [Compound 330, (14S,17R)-8-cyclobutyl-12,12-dimethyl-17-(pyridin-2-yl)-2λ^6-thia-3,9,11,18,23-pentaazatetracyclo[17.3.1.111,14.05,10]tetracosa-1(22),5,7,9,19(23),20-hexaene-2,2,4-trione] | – | – | +++ (+++ is >60%) | < 1000 nM
CC1(C)C[C@@H]2CC[C@H](c3ccccn3)Nc3cccc(n3)S(=O)(=O)NC(=O)c3ccc(N4CCN(CC5CC5)C4=O)nc3N1C2 [Compound 331] | – | – | +++ (+++ is >60%) | < 1000 nM
CC(C)N1CCN(c2ccc3c(n2)N2C[C@@H](CC[C@H](c4ccccn4)Nc4cccc(n4)S(=O)(=O)NC3=O)CC2(C)C)C1=O [Compound 332] | – | – | +++ (+++ is >60%) | 1000 to 3000 nM
CN1CCN(c2ccc3c(n2)N2C[C@@H](CC[C@H](c4ccccn4)Nc4cccc(n4)S(=O)(=O)NC3=O)CC2(C)C)C1=O [Compound 333] | – | – | +++ (+++ is >60%) | 1000 to 3000 nM
CC1(C)C[C@@H]2CC[C@H](c3ccccn3)Nc3cccc(n3)S(=O)(=O)NC(=O)c3ccc(-n4ccc(OCC5CC5)n4)nc3N1C2 [Compound 334] | – | – | +++ (+++ is >60%) | < 1000 nM

Compound | Corrector Assay B % activity [1] | EC50 [1] | Corrector Assay A % activity [2] | EC50 [2]
COc1ccn(-c2ccc3c(n2)N2C[C@@H](CC[C@H](c4ccccn4)Nc4cccc(n4)S(=O)(=O)NC3=O)CC2(C)C)n1 [Compound 335] | – | – | +++ (+++ is >60%) | < 1000 nM
CC(C)c1ccn(-c2ccc3c(n2)N2C[C@@H](CC[C@H](c4ccccn4)Nc4cccc(n4)S(=O)(=O)NC3=O)CC2(C)C)n1 [Compound 336] | – | – | +++ (+++ is >60%) | < 1000 nM
COc1cccc(-c2ccc3c(n2)N2C[C@@H](CC[C@H](c4ccccn4)Nc4cccc(n4)S(=O)(=O)NC3=O)CC2(C)C)n1 [Compound 337] | – | – | +++ (+++ is >60%) | < 1000 nM
COc1cccc(-c2ccc3c(n2)N2C[C@@H](CC[C@@H](c4ccccn4)Nc4cccc(n4)S(=O)(=O)NC3=O)CC2(C)C)n1 [Compound 338] | – | – | +++ (+++ is >60%) | < 1000 nM
COc1cccc(-c2ccc3c(n2)N2C[C@@H](CC[C@H](c4ccccn4)Nc4cccc(n4)S(=O)(=O)NC3=O)CC2(C)C)c1 [Compound 339] | – | – | +++ (+++ is >60%) | < 1000 nM
COc1cccc(-c2ccc3c(n2)N2C[C@@H](CC[C@@H](c4ccccn4)Nc4cccc(n4)S(=O)(=O)NC3=O)CC2(C)C)c1 [Compound 340] | – | – | ++ (++ is 30-60%) | 1000 to 3000 nM
CC1(C)C[C@@H]2CC[C@H](c3ccccn3)Nc3cccc(n3)S(=O)(=O)NC(=O)c3ccc(-c4c(Cl)cccc4Cl)nc3N1C2 [Compound 341] | – | – | +++ (+++ is >60%) | < 1000 nM
CC1(C)C[C@@H]2CC[C@@H](c3ccccn3)Nc3cccc(n3)S(=O)(=O)NC(=O)c3ccc(-c4c(Cl)cccc4Cl)nc3N1C2 [Compound 342] | – | – | ++ (++ is 30-60%) | < 1000 nM
CC1(C)C[C@@H]2CC[C@H](c3ccccn3)Nc3cccc(n3)S(=O)(=O)NC(=O)c3ccc(-c4c(F)cccc4Cl)nc3N1C2 [Compound 343] | – | – | +++ (+++ is >60%) | < 1000 nM
CC1(C)C[C@@H]2CC[C@@H](c3ccccn3)Nc3cccc(n3)S(=O)(=O)NC(=O)c3ccc(-c4c(F)cccc4Cl)nc3N1C2 [Compound 344] | – | – | ++ (++ is 30-60%) | < 1000 nM
CC(C)n1cc(-c2ccc3c(n2)N2C[C@@H](CC[C@@H](c4ccccn4)Nc4cccc(n4)S(=O)(=O)NC3=O)CC2(C)C)cn1 [Compound 345] | – | – | ++ (++ is 30-60%) | < 1000 nM
CC(C)n1cc(-c2ccc3c(n2)N2C[C@@H](CC[C@H](c4ccccn4)Nc4cccc(n4)S(=O)(=O)NC3=O)CC2(C)C)cn1 [Compound 346] | – | – | ++ (++ is 30-60%) | < 1000 nM
CC(C)c1ccc(-c2ccc3c(n2)N2C[C@@H](CC[C@H](c4ccccn4)Nc4cccc(n4)S(=O)(=O)NC3=O)CC2(C)C)cc1 [Compound 347] | – | – | +++ (+++ is >60%) | < 1000 nM
CC(C)c1ccc(-c2ccc3c(n2)N2C[C@@H](CC[C@@H](c4ccccn4)Nc4cccc(n4)S(=O)(=O)NC3=O)CC2(C)C)cc1 [Compound 348] | – | – | ++ (++ is 30-60%) | < 1000 nM
CC1(C)C[C@@H]2CC[C@H](c3ccccn3)Nc3cccc(n3)S(=O)(=O)NC(=O)c3ccc(C4CC4)nc3N1C2 [Compound 349] | – | – | +++ (+++ is >60%) | < 1000 nM
CC1(C)C[C@@H]2CCC(c3ccccn3)Nc3cccc(n3)S(=O)(=O)NC(=O)c3ccc(-n4ccc(OCCC5C6(CC6)C56CC6)n4)nc3N1C2 (stereo partly drawn) [Compound 355, (14S)-8-[3-(2-{dispiro[2.0.2.1]heptan-7-yl}ethoxy)-1H-pyrazol-1-yl]-12,12-dimethyl-17-(pyridin-2-yl)-2λ^6-thia-3,9,11,18,23-pentaazatetracyclo[17.3.1.111,14.05,10]tetracosa-1(22),5,7,9,19(23),20-hexaene-2,2,4-trione] | – | – | +++ (+++ is >60%) | < 1000 nM
CC1(C)CC2CCC(c3ccccn3)Nc3cccc(n3)S(=O)(=O)NC(=O)c3ccc(-n4ccc(OCCC5C6(CC6)C56CC6)n4)nc3N1C2 [Compound 356, (14S)-8-13-(2-{dispiro[2.0.2.11heptan-7-yl}ethoxy)-1H-pyrazol-1-yl]-12,12-dimethyl-17-(pyridin-2-yl)-2λ^6-thia-3,9,11,18,23-pentaazatetracyclo[17.3.1.111,14.05,10]tetracosa-1(22),5,7,9,19(23),20-hexaene-2,2,4-trione] | – | – | +++ (+++ is >60%) | < 1000 nM
